Data reported in PMC2810230, “Antiplasmodial Activities of Homogentisic Acid Derivative Protein Kinase Inhibitors Isolated from a Vanuatu Marine Sponge Pseudoceratina sp” (Marine Drugs, 2009).
Where two headings read alike, the source gives them in different places.

Legend:
Escherichia coli = experiment: Antibacterial disc growth inhibition test, E. coli; assay type: cell-based
Protocol: Activity was evaluated by the standard […] with human pathogenic Staphylococcus aureus and Escherichia coli at 100 μg/disc for a disc of 6 mm diameter (Table 3). […] Bromotyrosine metabolites have already been reported as antibacterials.

Staphylococcus aureus = experiment: Antibacterial disc growth inhibition test, S. aureus; assay type: cell-based
[1] = system: chloroquine-resistant Plasmodium falciparum strain FcB1; experiment: Activity against erythrocytic stages of cultured P. falciparum (LDH assay); assay type: cell-based; settings: for IC50: read-out: FCB1 of P. falciparum IC50; for Antiplasmodial activity against FcB1 P. falciparum (in words): in vitro
Protocol: The antiplasmodial activity was studied in vitro against the chloroquine-resistant Plasmodium falciparum strain FcB1 by a micromethod using the lactate deshydrogenase (LDH) assay (Makler and Hinrichs). Parasites were cultivated using the method of Trager and Jensen. Erythrocytes infected with P. falciparum (ring stage, 1% of parasitaemia) were re-suspended in complete culture medium at a haematocrit of 1.5%. The suspension was distributed in 96-well microtitre plates (200 μL per well). Drug testing was performed in triplicate. For each assay, a parasite culture was incubated with the drug for 48 h in 5% CO2 at 95% relative humidity, and frozen until the biochemical assay could be run. After defrosting, a 20 μL sub-sample of the contents of each well was mixed with 100 μL of a substrate solution containing 20 mg/mL of lithium L-lactate (Sigma), 5.5 mg/mL of TRIS (Sigma), and 3.7 mg/mL of 3-acetylpyridine adenine dinucleotide (APAD; Sigma), in the well of another microtitre plate. After incubation for 30 min, 25 μL of a mixture of NBT (1.6 mg/mL; Sigma) and PES (0.1 mg/mL; Sigma) were added to each well. After a further 35 min of incubation, the reaction was stopped by the addition of 25% acetic acid (25 μL per well). Accumulation of the reduced form of APAD was measured at λ = 650 nm, using a spectrophotometer (microplate reader, Metertech). IC50 values were determined graphically in a concentration versus percent inhibition curve.

Pfnek-1 = Pfnek-1 (Plasmodium falciparum, UniProt Q8I5D5); experiment: Pfnek-1 protein kinase assay (33P incorporation in β-casein); assay type: biochemical
Protocol: A GST-Pfnek-1 fusion protein was purified from the Escherichia coli BL21 strain carrying a Pfnek-1 expression plasmid harbouring an ampicillin resistance cassette (bacteria kindly provided by D. Dorin, INSERM 511) as described by Dorin et al.. Pfnek-1 kinase activity was determined by measuring the ^33P incorporation in ß-caseine using γ[^33P]-ATP.
Briefly, test compounds were dissolved in DMSO and diluted in 20 mM Tris, pH 7.5 20 mM MgCl2, 10 mM NaF and 10 mM ATP. β-casein (3 mg/mL) and γ[^33P]-ATP were added prior to the addition of Pfnek-1 to start the kinase reaction. Approximately 5 μCi of γ[^33P]-ATP was used per reaction. After incubation at 30 °C for 30 min, each solution was blotted on a phosphocellulose filter paper (P81 Whatman-cation exchange chromatography paper). After four washes with 1% H3PO4 at, the remaining radioactivity was measured using a liquid scintillation analyzer Packard 1600TR. The IC50 is defined as the concentration of compound which inhibits 50% of enzyme activity compared to the control (reaction in the absence of inhibitor).

[2] = system: chloroquine-resistant Plasmodium falciparum strain FcB1; set-up: method as in PMID 15124089; settings: isolated from leaves of Glossocalyx brevipes; cited from earlier work
[3] = 100 μg/disc, disc of 6 mm diameter
[4] = GST-Pfnek-1, β-casein substrate, 30 °C, 30 min
[5] = Plasmodium falciparum, FcB1 strain, 48 h incubation, LDH readout
[6] = FcB1 strain, 48 h incubation, LDH readout

Pfnek-1, sequence (Q8I5D5 entry or part of it): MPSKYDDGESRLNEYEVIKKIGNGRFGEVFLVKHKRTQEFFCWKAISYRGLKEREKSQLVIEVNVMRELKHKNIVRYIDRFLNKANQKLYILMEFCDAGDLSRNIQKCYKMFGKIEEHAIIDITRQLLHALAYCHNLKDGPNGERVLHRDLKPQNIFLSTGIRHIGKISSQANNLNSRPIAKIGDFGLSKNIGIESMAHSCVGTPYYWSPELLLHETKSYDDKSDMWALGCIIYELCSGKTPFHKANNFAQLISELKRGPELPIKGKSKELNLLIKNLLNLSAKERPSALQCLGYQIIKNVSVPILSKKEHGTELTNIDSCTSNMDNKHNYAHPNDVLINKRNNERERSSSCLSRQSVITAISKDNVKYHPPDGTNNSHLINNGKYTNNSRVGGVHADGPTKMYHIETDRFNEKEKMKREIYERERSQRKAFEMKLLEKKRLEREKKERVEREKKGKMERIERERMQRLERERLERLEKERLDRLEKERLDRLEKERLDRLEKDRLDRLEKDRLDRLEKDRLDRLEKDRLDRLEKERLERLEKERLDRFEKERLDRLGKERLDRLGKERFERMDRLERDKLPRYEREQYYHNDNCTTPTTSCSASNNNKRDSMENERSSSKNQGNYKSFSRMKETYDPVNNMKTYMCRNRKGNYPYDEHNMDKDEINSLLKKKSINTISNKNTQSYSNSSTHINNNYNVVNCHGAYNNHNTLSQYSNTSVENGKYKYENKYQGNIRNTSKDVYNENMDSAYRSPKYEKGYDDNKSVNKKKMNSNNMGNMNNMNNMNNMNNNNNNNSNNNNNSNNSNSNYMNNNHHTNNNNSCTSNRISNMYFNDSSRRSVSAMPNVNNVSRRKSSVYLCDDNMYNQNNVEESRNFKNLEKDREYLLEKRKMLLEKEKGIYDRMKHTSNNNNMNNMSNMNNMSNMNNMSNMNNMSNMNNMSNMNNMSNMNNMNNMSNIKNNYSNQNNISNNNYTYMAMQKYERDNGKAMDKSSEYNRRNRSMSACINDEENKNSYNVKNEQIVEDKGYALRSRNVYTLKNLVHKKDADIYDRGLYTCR

| Molecule | Pfnek-1 inhibitory activity (in words) (Pfnek-1) | IC50 (Pfnek-1; [4]) [µM] | IC50 [1, 5] [µM] | further results |
| --- | --- | --- | --- | --- |
| COC1=C(Br)[C@H](O)[C@@]2(C=C1Br)CC(C(=O)NCCCOc1c(Br)cc(CCNC(=O)C3=NO[C@]4(C=C(Br)C(OC)=C(Br)[C@@H]4O)C3)cc1Br)=NO2 | inactive | > 50 |  | Antibacterial activity against E. coli (in words) (Escherichia coli; 100 μg/disc): strong antibacterial activities; Growth inhibition diameter, E. coli (Escherichia coli; [3]): 16 mm; Antibacterial activity against S. aureus (in words) (Staphylococcus aureus; 100 μg/disc): strong antibacterial activities; Growth inhibition diameter, S. aureus (Staphylococcus aureus; [3]): 14 mm; IC50 ([1]; Plasmodium falciparum, FCB1, 48 h): > 100 µM |
| CC(C)=CCCC(C)=CCC1(CC(=O)O)CC(O)C=CC1=O (stereo not drawn) [2-(1′β-geranyl-5′β-hydroxy-2′-oxocyclohex-3′-enyl)acetic acid] |  |  |  | Activity against P. falciparum (in words) [2]: modest activities |
| COC1=C(Br)[C@H](O)[C@@]2(C=C1Br)CC(C(=O)NCCCOc1c(Br)cc(C(O)CNC(=O)C3=NO[C@]4(C=C(Br)C(OC)=C(Br)[C@@H]4O)C3)cc1Br)=NO2 (stereo partly shown) [Compound 2, 11-deoxyfistularin-3] | inactive | > 50 | > 100 | Growth inhibition diameter, E. coli (Escherichia coli; [3]): 0 mm; Growth inhibition diameter, S. aureus (Staphylococcus aureus; [3]): 0 mm |
| COC(=O)Cc1c(O)cc(Br)c(O)c1Br [Compound 4a, Methyl (2,4-dibromo-3,6-dihydroxyphenyl)acetate] | most active | ~1.8 | 12 | Antibacterial activity against E. coli (in words) (Escherichia coli; 100 μg/disc): inactive; Growth inhibition diameter, E. coli (Escherichia coli; [3]): 0 mm; Antibacterial activity against S. aureus (in words) (Staphylococcus aureus; 100 μg/disc): inactive; Growth inhibition diameter, S. aureus (Staphylococcus aureus; [3]): 0 mm; Antiplasmodial activity against FcB1 P. falciparum (in words) [1]: moderately active; Pfnek-1 activity of 4a relative to 4b (Pfnek-1): five times more active |
| COC(=O)Cc1cc(O)c(Br)cc1O [Compound 4b, Methyl (4-bromo-3,6-dihydroxyphenyl)acetate] | moderately active | 10 | 26 |  |
| O=C1Cc2cc(O)ccc2O1 [Compound 5, 5-Hydroxy-3H-benzofuran-2-one] |  |  | 29 | IC50 (Pfnek-1): > 50 µM |
| O=C1Cc2c(cc(Br)c(O)c2Br)O1 [Compound 6a, 4,6-Dibromo-5-hydroxy-3H-benzofuran-2-one] | inactivity | > 50 | 35 |  |
| O=C1Cc2cc(O)c(Br)cc2O1 [Compound 6b, 6-bromo-5-hydroxy-3H-benzofuran-2-one] | inactivity | > 50 | 17 |  |
| COC(=O)Cc1cc(O)ccc1O [Compound 8, Methyl (2,5-dihydroxyphenyl)acetate] | inactive | > 50 | 36 |  |
| COC(=O)Cc1cc(Br)c(O)c(Br)c1O [Compound 12, Methyl (3,5-dibromo-2,4-dihydroxyphenyl)acetate] | inactive | > 50 | > 100 | Antiplasmodial activity against FcB1 P. falciparum (in words) [1]: inactive |
| O=C(N[C@H](CO)[C@H](O)c1ccc([N+](=O)[O-])cc1)C(Cl)Cl [chloramphenicol, reference compound] |  |  |  | Growth inhibition diameter, E. coli (Escherichia coli; 30 μg/disc): 17 mm |
| COC(=O)CC1(CC=C(C)CCC=C(C)C)CC(O)C=CC1=O (stereo not drawn) [methyl 2-(1′β-geranyl-5′β-hydroxy-2′-oxocyclohex-3-enyl)acetate] |  |  |  | Activity against P. falciparum (in words) [2]: modest activities |
| Methyl (3,6-dibenzoyl-2,4-dibromophenyl)acetate [Compound 13a] | inactivity | > 50 |  | IC50 [1, 6]: 22.5 µM |
| Methyl (3,6-dibenzoyl-4-bromophenyl)acetate [Compound 13b] | inactivity | > 50 |  | IC50 [1, 6]: 13 µM |
| gentamycin [reference compound] |  |  |  | Growth inhibition diameter, S. aureus (Staphylococcus aureus; 10 μg/disc): 16 mm |
